According to patent publication US20180256673A1, “METHODS FOR TREATING FUNGAL INFECTIONS” (priority 2015, published 2018):
Converted amounts (≈) assume the structure as drawn. Where two headings read alike, the source gives them in different places. Starred links: 1 amine or outer side, 2 acyl side, 3 side chain; linkers in the order of their positions; H or OH if unused. Positions of bridges follow the written chain, without caps; N, C: chain ends. Non-standard residues stand in square brackets, D forms with d. Residues, ends and D or L forms follow the SMILES beside them. *: point of attachment. hTyr(3S-OH,4S-OH,3'-OSO3H) = N[C@H](C(=O)O)[C@H](O)[C@@H](O)c1ccc(O)c(OS(=O)(=O)O)c1; Orn(4R-OH,5R-OH) = O=C([C@H](C[C@@H](O)[C@@H](O)N[*:3])N[*:1])[*:2]; Pro(3S-OH,4S-Me) = C[C@H]1CN[C@H](C(=O)O)[C@H]1O; X1 = CCCCCOc1ccc(-c2cc(-c3ccc(C(=O)*)cc3)no2)cc1; Gln(3R-OH) = NC(=O)C[C@@H](O)[C@H](N)C(=O)O; Hyp = O=C(O)[C@@H]1C[C@@H](O)CN1

Assays:
[1] = system: C. glabrata vaginal isolates; test: Susceptibility testing of VVC clinical isolates at pH 7 and 4 (CLSI M27-A3); assay type: cell-based, Candida glabrata; details: Nakaseomyces glabratus
[2] = system: Aspergillus fumigatus; test: Broth microdilution of invasive fungal isolates (CLSI M27-A3/M38-A2), MEC; assay type: cell-based; details: 56 isolates
[3] = system: Candida dubliniensis; test: Broth microdilution of invasive fungal isolates (CLSI M27-A3/M38-A2); assay type: cell-based
[4] = system: Candida albicans; test: as above; assay type: cell-based
[5] = system: Candida glabrata; test: microbe, parasite or virus in culture; assay type: cell-based
[6] = system: C. albicans vaginal isolates; test: Susceptibility testing of VVC clinical isolates at pH 7 and 4 (CLSI M27-A3); assay type: cell-based, Candida albicans; details: Candida albicans
[7] = system: Candida orthopsilosis; test: Broth microdilution of invasive fungal isolates (CLSI M27-A3/M38-A2); assay type: cell-based

Question: `CCCCCOc1ccc(-c2cc(-c3ccc(C(=O)N[C@H]4C[C@@H](O)[C@@H](O)NC(=O)[C@@H]5[C@@H](O)[C@@H](C)CN5C(=O)[C@H]([C@H](O)CC(N)=O)NC(=O)[C@H]([C@H](O)[C@@H](O)c5ccc(O)c(OS(=O)(=O)O)c5)NC(=O)[C@@H]5C[C@@H](O)CN5C(=O)[C@H]([C@@H](C)O)NC4=O)cc3)no2)cc1` [MCF, micafungin] (X1-[Orn(4R-OH,5R-OH)]T[Hyp][hTyr(3S-OH,4S-OH,3'-OSO3H)][Gln(3R-OH)][Pro(3S-OH,4S-Me)]; lactam 1-C) was tested. Which MIC90 ([1]; 24 h, pH 4) did it give?
Answer: 0.016 µg/mL (≈ 0.0126 µM)

Question: And the MIC90 ([1]; 24 h, pH 7)?
Answer: 0.008 µg/mL (≈ 0.0063 µM)

Question: And the MIC90 ([1]; 48 h, pH 4)?
Answer: 0.03 µg/mL (≈ 0.0236 µM)

Question: What about the MIC90 ([1]; 48 h, pH 7) of the same compound?
Answer: 0.016 µg/mL (≈ 0.0126 µM)

Question: What about the “Cumulative % of isolates inhibited at MEC 0.015 μg/mL” value [2] of the same compound?
Answer: (96.4) %

Question: What about the “Cumulative % of isolates inhibited at MEC 0.03 μg/mL” value [2] of the same compound?
Answer: (100.0) %

Question: What about the “Cumulative % of isolates inhibited at MEC ≤0.008 μg/mL” value [2] of the same compound?
Answer: (28.6) %

Question: What about the MEC50 [2] of the same compound?
Answer: .015 µg/mL

Question: What about the MEC90 [2] of the same compound?
Answer: .015 µg/mL

Question: And the “Number of isolates inhibited at MEC 0.015 μg/mL” value [2]?
Answer: 38

Question: What about the “Number of isolates inhibited at MEC 0.03 μg/mL” value [2] of the same compound?
Answer: 2

Question: And the “Number of isolates inhibited at MEC ≤0.008 μg/mL” value [2]?
Answer: 16

Question: And the “Cumulative % of isolates inhibited at MIC 0.015 μg/mL” value ([3]; 11 isolates)?
Answer: (27.3) %

Question: What about the “Cumulative % of isolates inhibited at MIC 0.03 μg/mL” value ([3]; 11 isolates) of the same compound?
Answer: (100.0) %

Question: And the “Number of isolates inhibited at MIC 0.015 μg/mL” value ([3]; 11 isolates)?
Answer: 3

Question: And the “Number of isolates inhibited at MIC 0.03 μg/mL” value ([3]; 11 isolates)?
Answer: 8

Question: And the MIC50 ([3]; Candida dubliniensis)?
Answer: 0.03 µg/mL (≈ 0.0236 µM)

Question: What about the MIC90 ([3]; Candida dubliniensis) of the same compound?
Answer: 0.03 µg/mL (≈ 0.0236 µM)

Question: And the “Cumulative % of isolates inhibited at MIC 0.015 μg/mL” value ([4]; 251 isolates)?
Answer: (74.9) %

Question: What about the “Cumulative % of isolates inhibited at MIC 0.03 μg/mL” value ([4]; 251 isolates) of the same compound?
Answer: (100.0) %

Question: And the “Cumulative % of isolates inhibited at MIC ≤0.008 μg/mL” value ([4]; 251 isolates)?
Answer: (6.8) %

Question: What about the “Number of isolates inhibited at MIC 0.015 μg/mL” value ([4]; 251 isolates) of the same compound?
Answer: 171

Question: What about the “Number of isolates inhibited at MIC 0.03 μg/mL” value ([4]; 251 isolates) of the same compound?
Answer: 63

Question: And the “Number of isolates inhibited at MIC ≤0.008 μg/mL” value ([4]; 251 isolates)?
Answer: 17

Question: What about the MIC50 ([4]; Candida albicans) of the same compound?
Answer: 0.015 µg/mL (≈ 0.0118 µM)

Question: What about the MIC90 ([4]; Candida albicans) of the same compound?
Answer: 0.03 µg/mL (≈ 0.0236 µM)

Question: And the “Cumulative % of isolates inhibited at MIC 0.015 μg/mL” value [5]?
Answer: (74.0) %

Question: What about the “Cumulative % of isolates inhibited at MIC 0.03 μg/mL” value [5] of the same compound?
Answer: (95.0) %

Question: What about the “Cumulative % of isolates inhibited at MIC 0.06 μg/mL” value [5] of the same compound?
Answer: (95.0) %

Question: What about the “Cumulative % of isolates inhibited at MIC 0.12 μg/mL” value [5] of the same compound?
Answer: (95.0) %

Question: And the “Cumulative % of isolates inhibited at MIC 0.25 μg/mL” value [5]?
Answer: (95.0) %

Question: What about the “Cumulative % of isolates inhibited at MIC 0.5 μg/mL” value [5] of the same compound?
Answer: (95.0) %

Question: And the “Cumulative % of isolates inhibited at MIC 1 μg/mL” value [5]?
Answer: (95.0) %

Question: What about the “Cumulative % of isolates inhibited at MIC 2 μg/mL” value [5] of the same compound?
Answer: (98.0) %

Question: What about the “Cumulative % of isolates inhibited at MIC 4 μg/mL” value [5] of the same compound?
Answer: (100.0) %

Question: And the “Cumulative % of isolates inhibited at MIC ≤0.008 μg/mL” value [5]?
Answer: (1.0) %

Question: And the “MIC according to CLSI method” value [5]?
Answer: 4 µg/mL (≈ 3.15 µM)

Question: What about the “Number of isolates inhibited at MIC 0.015 μg/mL” value [5] of the same compound?
Answer: 73

Question: What about the “Number of isolates inhibited at MIC 0.03 μg/mL” value [5] of the same compound?
Answer: 21

Question: What about the “Number of isolates inhibited at MIC 0.06 μg/mL” value [5] of the same compound?
Answer: 0

Question: What about the “Number of isolates inhibited at MIC 0.12 μg/mL” value [5] of the same compound?
Answer: 0

Question: What about the “Number of isolates inhibited at MIC 0.25 μg/mL” value [5] of the same compound?
Answer: 0

Question: What about the “Number of isolates inhibited at MIC 0.5 μg/mL” value [5] of the same compound?
Answer: 0

Question: What about the “Number of isolates inhibited at MIC 1 μg/mL” value [5] of the same compound?
Answer: 0

Question: And the “Number of isolates inhibited at MIC 2 μg/mL” value [5]?
Answer: 3

Question: And the “Number of isolates inhibited at MIC 4 μg/mL” value [5]?
Answer: 2

Question: And the “Number of isolates inhibited at MIC ≤0.008 μg/mL” value [5]?
Answer: 1

Question: What about the MIC50 ([5]; Nakaseomyces glabratus, read-out: MIC50) of the same compound?
Answer: 0.015 µg/mL (≈ 0.0118 µM)

Question: What about the MIC90 ([5]; Nakaseomyces glabratus, read-out: MIC90) of the same compound?
Answer: 0.03 µg/mL (≈ 0.0236 µM)

Question: What about the MIC ([5]; Nakaseomyces glabratus, read-out: MIC according to CLSI method) of the same compound?
Answer: 2 µg/mL (≈ 1.57 µM)

Question: And the MIC ([5]; Nakaseomyces glabratus, read-out: MIC results)?
Answer: 2 to 4 µg/mL (≈ 1.57 to 3.15 µM)

Question: And the MIC90 ([6]; 24 h, pH 4)?
Answer: 0.125 µg/mL (≈ 0.0984 µM)

Question: And the MIC90 ([6]; 24 h, pH 7)?
Answer: 0.008 µg/mL (≈ 0.0063 µM)

Question: And the MIC90 ([6]; 48 h, pH 4)?
Answer: 0.25 µg/mL (≈ 0.197 µM)

Question: And the MIC ([6]; 48 h, pH 4, fluconazole-resistant isolate 1, pH 4)?
Answer: 0.016 µg/mL (≈ 0.0126 µM)

Question: What about the MIC ([6]; 48 h, pH 4, fluconazole-resistant isolate 2, pH 4) of the same compound?
Answer: 0.016 µg/mL (≈ 0.0126 µM)

Question: What about the MIC ([6]; 48 h, pH 4, fluconazole-resistant isolate 3, pH 4) of the same compound?
Answer: 0.016 µg/mL (≈ 0.0126 µM)

Question: And the MIC ([6]; 48 h, pH 4, fluconazole-resistant isolate 4, pH 4)?
Answer: 0.03 µg/mL (≈ 0.0236 µM)

Question: What about the MIC ([6]; 48 h, pH 4, fluconazole-resistant isolate 5, pH 4) of the same compound?
Answer: 0.016 µg/mL (≈ 0.0126 µM)

Question: And the MIC ([6]; 48 h, pH 4, fluconazole-resistant isolate 6, pH 4)?
Answer: 0.03 µg/mL (≈ 0.0236 µM)

Question: What about the MIC ([6]; 48 h, pH 4, fluconazole-resistant isolate 7, pH 4) of the same compound?
Answer: 0.25 µg/mL (≈ 0.197 µM)

Question: And the MIC ([6]; 48 h, pH 4, fluconazole-resistant isolate 8, pH 4)?
Answer: 0.06 µg/mL (≈ 0.0472 µM)

Question: What about the MIC ([6]; 48 h, pH 4, fluconazole-resistant isolate 9, pH 4) of the same compound?
Answer: 0.125 µg/mL (≈ 0.0984 µM)

Question: And the MIC ([6]; 48 h, pH 4, fluconazole-resistant isolate 10, pH 4)?
Answer: 0.06 µg/mL (≈ 0.0472 µM)

Question: And the MIC90 ([6]; 48 h, pH 7)?
Answer: 0.03 µg/mL (≈ 0.0236 µM)

Question: What about the MIC ([6]; 48 h, pH 7, fluconazole-resistant isolate 1, pH 7) of the same compound?
Answer: 0.008 µg/mL (≈ 0.0063 µM)

Question: What about the MIC ([6]; 48 h, pH 7, fluconazole-resistant isolate 2, pH 7) of the same compound?
Answer: 0.016 µg/mL (≈ 0.0126 µM)

Question: What about the MIC ([6]; 48 h, pH 7, fluconazole-resistant isolate 3, pH 7) of the same compound?
Answer: 0.008 µg/mL (≈ 0.0063 µM)

Question: What about the MIC ([6]; 48 h, pH 7, fluconazole-resistant isolate 4, pH 7) of the same compound?
Answer: 0.008 µg/mL (≈ 0.0063 µM)

Question: And the MIC ([6]; 48 h, pH 7, fluconazole-resistant isolate 5, pH 7)?
Answer: 0.06 µg/mL (≈ 0.0472 µM)

Question: What about the MIC ([6]; 48 h, pH 7, fluconazole-resistant isolate 6, pH 7) of the same compound?
Answer: 0.008 µg/mL (≈ 0.0063 µM)

Question: And the MIC ([6]; 48 h, pH 7, fluconazole-resistant isolate 7, pH 7)?
Answer: 0.06 µg/mL (≈ 0.0472 µM)

Question: What about the MIC ([6]; 48 h, pH 7, fluconazole-resistant isolate 8, pH 7) of the same compound?
Answer: 0.008 µg/mL (≈ 0.0063 µM)

Question: And the MIC ([6]; 48 h, pH 7, fluconazole-resistant isolate 9, pH 7)?
Answer: 0.06 µg/mL (≈ 0.0472 µM)

Question: And the MIC ([6]; 48 h, pH 7, fluconazole-resistant isolate 10, pH 7)?
Answer: 0.008 µg/mL (≈ 0.0063 µM)

Question: What about the “Cumulative % of isolates inhibited at MIC 0.12 μg/mL” value ([7]; 10 isolates) of the same compound?
Answer: (20.0) %

Question: And the “Cumulative % of isolates inhibited at MIC 0.25 μg/mL” value ([7]; 10 isolates)?
Answer: (40.0) %

Question: And the “Cumulative % of isolates inhibited at MIC 0.5 μg/mL” value ([7]; 10 isolates)?
Answer: (70.0) %

Question: And the “Cumulative % of isolates inhibited at MIC 1 μg/mL” value ([7]; 10 isolates)?
Answer: (100.0) %

Question: What about the “Number of isolates inhibited at MIC 0.12 μg/mL” value ([7]; 10 isolates) of the same compound?
Answer: 2

Question: What about the “Number of isolates inhibited at MIC 0.25 μg/mL” value ([7]; 10 isolates) of the same compound?
Answer: 2

Question: And the “Number of isolates inhibited at MIC 0.5 μg/mL” value ([7]; 10 isolates)?
Answer: 3

Question: What about the “Number of isolates inhibited at MIC 1 μg/mL” value ([7]; 10 isolates) of the same compound?
Answer: 3

Question: And the MIC50 ([7]; Lodderomyces orthopsilosis)?
Answer: 0.5 µg/mL (≈ 0.394 µM)

Question: What about the MIC90 ([7]; Lodderomyces orthopsilosis) of the same compound?
Answer: 1 µg/mL (≈ 0.787 µM)
